US9526712B2, “Methods and agents for preventing and treating plasma cell dyscrasias” (NEW YORK UNIVERSITY, priority 2013, dated 2016)

Legend:
[1] = tested on: ARP1 MM cells; experiment: Cellular proliferation by MTT assay (CellTiter 96 AQ); assay type: cell-based; conditions: Homo sapiens, ARP-1, 72 hr treatment
Description: (§1) The growth inhibitory activity of SAC was further characterized by MTT assay. These experiments assess cellular proliferation using the CellTiter 96 AQ Non-Radioactive Cell Proliferation Assay (Promega). This assay determines the number of living cells based upon the bioreduction of MTS tetrazolium compound into a colored formazan product. The quantity of product, as measured by absorbance on a microplate reader at 495 nm, is directly proportional to the number of living cells in culture. All cells were seeded in 96-well plates at a density of 5,000 cells per well. After overnight incubation, cells were treated with SAC at the indicated concentrations. After a 72 hr incubation period, proliferation was assessed. Cellular proliferation was expressed as a percentage with vehicle-treated cells set at 100%. See, for example, FIG. 2.
(§2) The cell proliferation assay performed to generate the results presented in FIG. 5, for example, was performed as described elsewhere herein. Briefly, all cells were seeded in 96-well plates at a density of 5000 cells per well. After overnight incubation, cells were treated with a candidate compound at concentrations ranging from 100 nM to 10000 nM. After a 72 hr incubation period, proliferation was assessed using a tetrazolium dye reduction assay (CellTiter 96 AQueous Non-Radioactive Cell Proliferation Assay; Promega, Madison, Wis.). Absorbance was recorded on a microplate reader at 490 nm. Cellular proliferation was expressed as a percentage with vehicle-treated cells set at 100%. Each assay was performed in triplicate with mean values reported.

[2] = tested on: KMS11 MM cells; experiment: as above; assay type: cell-based; conditions: Homo sapiens, KMS-11, 72 hr treatment
Description: as §1, §2

[3] = tested on: KMS11 and ARP-1 MM cells expressing Gluc; experiment: Gluc (Gaussia luciferase) secretion screen; assay type: cell-based, human; conditions: 5 μM compound, 24 hours, % RLU relative to DMSO control
Description: Using decreased protein processing in the secretory pathway as a measurable hallmark of ER stress, the screen described herein employs the naturally secreted Gaussia luciferase (Gluc) as a reporter that can be easily monitored through extracellular release of luciferase activity in real time. KMS11 and ARP-1 MM cells expressing Gluc were exposed to compounds in a natural products library in order to identify those which potentially induce ER stress as measured by inhibition of Gluc secretion. Both KMS11 and ARP-1 are human MM cells lines routinely used in the literature as in vitro models of MM. See, for example, Paterson et al., Br J Haematol, 2004, 124, 595-603; Pedranzini et al., Cancer Res, 2006, 66, 9714-9721; Stein et al., Clin Cancer Res, 2009, 15, 2808-2817; St-Germain J R. et al., Proc Natl Acad Sci USA, 2009, 106, 20127-20132; Gojo et al., Clin Cancer Res, 2002, 8, 3527-3538; Drucker et al., Carcinogenesis, 2006, 27, 197-204; Weiss et al., Br J Cancer, 2012, 107, 1844-1852; and Wang et al., Clin Cancer Res, 2006, 12, 49-56; the entire content of each of which is incorporated herein by reference. […] For screening, KMS11 and ARP1 cells were seeded in 96-well plates and treated with 5 μM of compounds from the Spectrum library (Microsource Discoveries) for 24 hours. Conditioned medium from each compound treatment was harvested to assay Gluc secretion alongside samples treated with DMSO alone, BTZ and TM as controls. Compounds of interest were considered to be those that inhibit Gluc secretion in both cell lines at least 30% after 24 hours treatment. See, for example, FIG. 1. […] For screening, […] Conditioned medium from each compound treatment was harvested to assay Gluc secretion alongside samples treated with DMSO alone, BTZ and TM as controls. Compounds of interest were considered to be those that inhibit Gluc secretion in both cell lines by at least 30% after 24 hours treatment. […]

[4] = tested on: KMS11 MM cells; experiment: Western blotting of UPR markers and apoptotic marker; assay type: cell-based, human; conditions: western blot
Description: In order to investigate the mechanism of SAC mediated ER stress response, the present inventors evaluated key unfolded protein response (UPR) markers including phospho-eIF2α and BIP as well as the apoptotic marker cleaved PARP by standard western blotting techniques. […] See also FIG. 3.

[5] = tested on: panel of 60 different cancer cell lines; experiment: NCI 60 cell screen growth inhibitory activity; assay type: cell-based; conditions: NCI 60 cell panel
Description: Although SAC has been used to treat other types of cancer including colon, lung, breast and liver, the present inventors are unaware of any studies pertaining to its efficacy in MM, MGUS or SMM. One major difference between these types of cancers relates to the fact that those that have been assessed with regard to SAC' s efficacy are solid tumors, whereas MM is a blood cancer. Further to this point, the present inventors submitted SAC for analysis in the Developmental Therapeutics Program at the NCI/NIH. The growth inhibitory activity of SAC was assessed in the NCI 60 cell screen, which is a panel of 60 different cancer cell lines. […] SAC anti-cancer activity must, therefore, be determined empirically for each cancer, due to the lack of predictability of response. Therefore, a compound's ability to act as a therapeutic agent in one cancer, e.g. colon, is not necessarily predictive of its properties with respect to a different cancer, even a related cancer. It is also noteworthy that no MM cell lines are represented in the 60 cell panel. This underscores the fact that, in advance of the present findings, MM cell lines were not thought to be suitable targets for examining SAC anti-cancer activity.

[6] = tested on: KMS11 and ARP1 multiple myeloma cells; experiment: XBP1 cleavage assay (semi-quantitative RT-PCR); assay type: cell-based, human; conditions: 0.5 uM SAC, 24 hours
Experimental: The XBP1 cleavage assay used to generate the results presented in FIG. 6 was performed as follows. KMS11 and ARP1 cells were treated with 0.5 uM SAC or 10 ng/ml tunicamycin (TM, positive control) for 24 hours. Total RNA was isolated from lysed cells with the RNeasy Mini kit (Qiagen, Germantown, Md., USA). XBP1 splicing was assessed by semi-quantitative RT-PCR as described previously (Lin, et al. Science, 2007. 318(5852):944-9; Manga et al. Pigment Cell Melanoma Res, 2010. 23(5):627-34; the entire content of each of which is incorporated herein by reference). cDNA was produced from total RNA preps using ImProm-II Reverse Transcription System (Promega). Primers spanning the fragment of XBP1 containing the intron targeted by Irela were used: 5′-[…]-3′ and 5′-[…]-3′. The thermal PCR cycling conditions are as follows: 95° C. for 5 min, 95° C. for 1 min, 58° C. for 30 s, 72° C. for 30 s, and 72° C. for 5 min with 35 cycles of amplification. In order to properly distinguish the PCR products, samples were digested with Pst1 (New England Biolabs, Ipswich, Mass., USA) that only cuts the unspliced cDNA (Calfon et al. Nature, 2002. 415(6867):92-6). Products were then separated on a 2.0% agarose/1× TAE gel and visualized by ethidium bromide.

[7] = tested on: bone marrow (BM) mononuclear cells isolated from a patient with smoldering multiple myeloma (SMM); experiment: Cellular proliferation of SMM bone marrow mononuclear cells; assay type: cell-based, human; conditions: 100 nM to 10000 nM, 72 hr
Description: To explore the effects of SAC in the context of SMM, the present inventors tested the activity of SAC in bone marrow (BM) mononuclear cells isolated from a patient with smoldering multiple myeloma (SMM). To isolate the BM mononuclear cells, heparinized BM samples were freshly obtained from a SMM patient, diluted in PBS, and subjected to Ficoll-Hypaque density separation. Mononuclear cells are carefully collected from the PBS-Ficoll interface, washed in PBS and pelleted. The cell proliferation assay was performed by seeding the SMM BM mononuclear cells in 96-well plates at a density of 5000 cells per well. After overnight incubation, cells were treated with SAC at concentrations ranging from 100 nM to 10000 nM. After a 72 hr incubation period, proliferation was assessed using a tetrazolium dye reduction assay (CellTiter 96 AQueous Non-Radioactive Cell Proliferation Assay; Promega, Madison, Wis.). Absorbance was recorded on a microplate reader at 490 nm. Cellular proliferation was expressed as a percentage with vehicle-treated cells set at 100%. Each assay was performed in triplicate with mean values reported.

Row | SMILES | IC50 [1] [nM] | IC50 [2] [nM] | inhibition of Gluc secretion [3] | BIP expression [4] | cleavage of PARP [4] | phosphorylation of eIF2-α [4] | mean growth percent across all 60 cell lines [5] | splicing of XBP1 [6] | inhibition of cellular proliferation [7] | inhibition of Gluc secretion ([3]; listed as alliicin)
1 | CCCSC[C@H](N)C(=O)O [SPC, S-propyl cysteine, reference compound] | > 10000 | > 10000 | – | – | – | – | – | – | – | –
2 | C=CCSC[C@H](N)C(=O)O [SAC, S-allylcysteine] | 1900 | 1500 | inhibited Gluc secretion as effectively as 5 μM BTZ | increased BIP expression | cleavage of PARP | enhanced phosphorylation of eIF2-α | 106 | enhanced splicing of the UPR transcription factor XBP1 | dose-dependent inhibition of cellular proliferation | –
3 | C=CC[S+]([O-])C[C@H](N)C(=O)O (stereo partly shown) [alliin, Allylcysteine sulfoxide] | – | – | not found to be effective at inhibiting GLUC secretion | – | – | – | – | – | – | did not exhibit an ability to target ER stress mediated pathways
